Laboratory results published in ChEMBL document CHEMBL4811309, “Design, synthesis and antiproliferative activity of novel 2,4-diamino-5-methyleneaminopyrimidine derivatives as potential anticancer agents” (Bioorg Med Chem Lett, 2021).

Key:
MCF7 [1] = assay: Antiproliferative activity against human MCF7 cells assessed as reduction in cell viability by MTT assay; format: functional, cell-based
HT-29 [2] = assay: Antiproliferative activity against human HT-29 cells assessed as reduction in cell viability by MTT assay; format: functional, cell-based
HeLa [3] = assay: Antiproliferative activity against human HeLa cells assessed as reduction in cell viability by MTT assay; format: functional, cell-based
HCT-116 [4] = assay: Antiproliferative activity against human HCT-116 cells assessed as reduction in cell viability by MTT assay; format: functional, cell-based
HCT-116 [5] = assay: Cell cycle arrest in human HCT-116 cells assessed as accumulation at G0/G1 phase at 10 uM measured after 24 hrs by propidium iodide staining based flow cytometry analysis (reference value: 30.60 %); format: functional
HCT-116 [6] = assay: Cell cycle arrest in human HCT-116 cells assessed as accumulation at S phase at 5 uM measured after 24 hrs by propidium iodide staining based flow cytometry analysis (reference value: 39%); format: functional
HCT-116 [7] = assay: Induction of apoptosis in human HCT-116 cells assessed as early apoptotic cells at 5 uM incubated for 24 hrs by Annexin V-FITC and propidium iodide staining based flow cytometry analysis (reference value: 6.19 %); format: functional
HCT-116 [8] = assay: Cell cycle arrest in human HCT-116 cells assessed as accumulation at G2M phase at 2.5 uM measured after 24 hrs by propidium iodide staining based flow cytometry analysis (reference value: 30.39 %); format: functional
HCT-116 [9] = assay: Cell cycle arrest in human HCT-116 cells assessed as accumulation at S phase at 2.5 uM measured after 24 hrs by propidium iodide staining based flow cytometry analysis (reference value: 39%); format: functional
HCT-116 [10] = assay: Cell cycle arrest in human HCT-116 cells assessed as accumulation at G2M phase at 10 uM measured after 24 hrs by propidium iodide staining based flow cytometry analysis (reference value: 30.39 %); format: functional
HCT-116 [11] = assay: Potency index, ratio of 5-FU IC50 to test compound IC50 for antiproliferative activity against human HCT-116 cells by MTT assay; format: functional
HCT-116 [12] = assay: Induction of apoptosis in human HCT-116 cells assessed as late apoptotic cells at 10 uM incubated for 24 hrs by annexin V-FITC and propidium iodide staining based flow cytometry analysis (reference value: 0.899 %); format: functional
HCT-116 [13] = assay: Induction of apoptosis in human HCT-116 cells assessed as necrotic cells at 5 uM incubated for 24 hrs by Annexin V-FITC and propidium iodide staining based flow cytometry analysis (reference value: 0.019 %); format: functional
HCT-116 [14] = assay: Cell cycle arrest in human HCT-116 cells assessed as accumulation at G0/G1 phase at 5 uM measured after 24 hrs by propidium iodide staining based flow cytometry analysis (reference value: 30.60 %); format: functional
HCT-116 [15] = assay: Induction of apoptosis in human HCT-116 cells assessed as necrotic cells at 10 uM incubated for 24 hrs by Annexin V-FITC and propidium iodide staining based flow cytometry analysis (reference value: 0.019 %); format: functional
HCT-116 [16] = assay: Cell cycle arrest in human HCT-116 cells assessed as accumulation at G0/G1 phase at 2.5 uM measured after 24 hrs by propidium iodide staining based flow cytometry analysis (reference value: 30.60 %); format: functional
MCF7 [17] = assay: Potency index, ratio of 5-FU IC50 to test compound IC50 for antiproliferative activity against human MCF7 cells by MTT assay; format: functional
HCT-116 [18] = assay: Cell cycle arrest in human HCT-116 cells assessed as accumulation at S phase at 10 uM measured after 24 hrs by propidium iodide staining based flow cytometry analysis (reference value: 39%); format: functional
HCT-116 [19] = assay: Induction of apoptosis in human HCT-116 cells assessed as viable cells at 2.5 uM incubated for 24 hrs by Annexin V-FITC and propidium iodide staining based flow cytometry analysis (reference value: 92.9 %); format: functional; settings: read-out: Activity
HCT-116 [20] = assay: Cell cycle arrest in human HCT-116 cells assessed as accumulation at G2M phase at 5 uM measured after 24 hrs by propidium iodide staining based flow cytometry analysis (reference value: 30.39 %); format: functional
HT-29 [21] = assay: Potency index, ratio of 5-FU IC50 to test compound IC50 for antiproliferative activity against human HT-29 cells by MTT assay; format: functional
HCT-116 [22] = assay: Induction of apoptosis in human HCT-116 cells assessed as late apoptotic cells at 2.5 uM incubated for 24 hrs by Annexin V-FITC and propidium iodide staining based flow cytometry analysis (reference value: 0.899 %); format: functional
HCT-116 [23] = assay: Induction of apoptosis in human HCT-116 cells assessed as viable cells at 10 uM incubated for 24 hrs by Annexin V-FITC and propidium iodide staining based flow cytometry analysis (reference value: 92.9 %); format: functional; settings: read-out: Activity
HCT-116 [24] = assay: Induction of apoptosis in human HCT-116 cells assessed as early apoptotic cells at 2.5 uM incubated for 24 hrs by Annexin V-FITC and propidium iodide staining based flow cytometry analysis (reference value: 6.19 %); format: functional
HCT-116 [25] = assay: Induction of apoptosis in human HCT-116 cells assessed as viable cells at 5 uM incubated for 24 hrs by Annexin V-FITC and propidium iodide staining based flow cytometry analysis (reference value: 92.9 %); format: functional; settings: read-out: Activity
HCT-116 [26] = assay: Induction of apoptosis in human HCT-116 cells assessed as late apoptotic cells at 5 uM incubated for 24 hrs by Annexin V-FITC and propidium iodide staining based flow cytometry analysis (reference value: 0.899 %); format: functional
HCT-116 [27] = assay: Induction of apoptosis in human HCT-116 cells assessed as necrotic cells at 2.5 uM incubated for 24 hrs by Annexin V-FITC and propidium iodide staining based flow cytometry analysis (reference value: 0.019 %); format: functional
HCT-116 [28] = assay: Induction of apoptosis in human HCT-116 cells assessed as early apoptotic cells at 10 uM incubated for 24 hrs by Annexin V-FITC and propidium iodide staining based flow cytometry analysis (reference value: 6.19 %); format: functional
HeLa [29] = assay: Potency index, ratio of 5-FU IC50 to test compound IC50 for antiproliferative activity against human HeLa cells by MTT assay; format: functional

CCOC(=O)/C=N/c1cnc(Nc2ccc(N3CCN(C)CC3)cc2)nc1NC(C)C
IC50 (MCF7 [1]): 12.3 µM
IC50 (HT-29 [2]): 7.59 µM
IC50 (HeLa [3]): 11.5 µM
IC50 (HCT-116 [4]): 13.6 µM

CC(C)Nc1nc(Nc2ccc(N3CCN(C)CC3)cc2)ncc1/N=C/c1cccs1
IC50 (MCF7 [1]): 91 µM
IC50 (HT-29 [2]): > 100 µM
IC50 (HeLa [3]): 77.1 µM
IC50 (HCT-116 [4]): > 100 µM

C(=N\c1cnc(Nc2ccc(N3CCOCC3)cc2)nc1NC1CCCC1)/c1cccs1
IC50 (MCF7 [1]): > 100 µM
IC50 (HT-29 [2]): 20.8 µM
IC50 (HeLa [3]): > 100 µM
IC50 (HCT-116 [4]): > 100 µM

CC(C)Nc1nc(Nc2ccc(N3CCOCC3)cc2)ncc1/N=C/c1ccccc1
IC50 (MCF7 [1]): > 100 µM
IC50 (HT-29 [2]): > 100 µM
IC50 (HeLa [3]): > 100 µM
IC50 (HCT-116 [4]): > 100 µM

CCOC(=O)/C=N/c1cnc(Nc2ccc(N3CCOCC3)cc2)nc1NC1CCCC1
Activity (HCT-116 [5]): 41.55%
Activity (HCT-116 [6]): 30.52%
IC50 (MCF7 [1]): 8.84 µM
Activity (HCT-116 [7]): 24.2%
Activity (HCT-116 [8]): 27.6%
Activity (HCT-116 [9]): 37.77%
Activity (HCT-116 [10]): 29.98%
Ratio IC50 (HCT-116 [11]): 4.9
Activity (HCT-116 [12]): 24.4%
Activity (HCT-116 [13]): 0.62%
Activity (HCT-116 [14]): 36.46%
Activity (HCT-116 [15]): 3.09%
Activity (HCT-116 [16]): 34.63%
Ratio IC50 (MCF7 [17]): 2.1
IC50 (HT-29 [2]): 5.57 µM
Activity (HCT-116 [18]): 28.47%
IC50 (HeLa [3]): 14.2 µM
viability at 2.5 µM (HCT-116 [19]): 80.3%
Activity (HCT-116 [20]): 33.02%
IC50 (HCT-116 [4]): 4.93 µM
Ratio IC50 (HT-29 [21]): 2.9
Activity (HCT-116 [22]): 8.86%
viability at 10 µM (HCT-116 [23]): 44.5%
Activity (HCT-116 [24]): 10.6%
viability at 5 µM (HCT-116 [25]): 63.5%
Activity (HCT-116 [26]): 11.7%
Activity (HCT-116 [27]): 0.195%
Activity (HCT-116 [28]): 28%
Ratio IC50 (HeLa [29]): 3

CN1CCN(c2ccc(Nc3ncc(/N=C/c4ccccc4)c(NC4CCCC4)n3)cc2)CC1
IC50 (MCF7 [1]): > 100 µM
IC50 (HT-29 [2]): 28.6 µM
IC50 (HeLa [3]): > 100 µM
IC50 (HCT-116 [4]): 35.2 µM

CCOC(=O)/C=N/c1cnc(Nc2ccc(S(N)(=O)=O)cc2)nc1NC1CCCC1
IC50 (MCF7 [1]): 42.2 µM
IC50 (HT-29 [2]): 23.6 µM
IC50 (HeLa [3]): 20.7 µM
IC50 (HCT-116 [4]): 9.64 µM

CCOC(=O)/C=N/c1cnc(Nc2ccc(S(N)(=O)=O)cc2)nc1NC1CC1
IC50 (MCF7 [1]): > 100 µM
IC50 (HT-29 [2]): > 100 µM
IC50 (HeLa [3]): > 100 µM
IC50 (HCT-116 [4]): > 100 µM

CCOC(=O)/C=N/c1cnc(Nc2ccc(S(N)(=O)=O)cc2)nc1NC(C)C
IC50 (MCF7 [1]): 58.8 µM
IC50 (HT-29 [2]): > 100 µM
IC50 (HeLa [3]): 83.3 µM
IC50 (HCT-116 [4]): 49.1 µM

CC(C)Nc1nc(Nc2ccc(S(N)(=O)=O)cc2)ncc1/N=C/c1ccc(C(F)(F)F)cc1
IC50 (MCF7 [1]): > 100 µM
IC50 (HT-29 [2]): > 100 µM
IC50 (HeLa [3]): > 100 µM
IC50 (HCT-116 [4]): > 100 µM

CC(C)Nc1nc(Nc2ccc(N3CCOCC3)cc2)ncc1/N=C/c1ccc(C(F)(F)F)cc1
IC50 (MCF7 [1]): > 100 µM
IC50 (HT-29 [2]): > 100 µM
IC50 (HeLa [3]): > 100 µM
IC50 (HCT-116 [4]): > 100 µM

NS(=O)(=O)c1ccc(Nc2ncc(/N=C/c3cccs3)c(NC3CCCC3)n2)cc1
IC50 (MCF7 [1]): 23 µM
IC50 (HT-29 [2]): 9.95 µM
IC50 (HeLa [3]): 10.9 µM
IC50 (HCT-116 [4]): 13.3 µM

O=c1[nH]cc(F)c(=O)[nH]1 [FLUOROURACIL]
IC50 (MCF7 [1]): 18.1 µM
IC50 (HT-29 [2]): 16.1 µM
IC50 (HeLa [3]): 42.7 µM
